# Measured values: patent US20230128815A1, “ADJUVANT COMPOUNDS, SALT FORMS, AND FORMULATIONS” (ADJUVANCE TECHNOLOGIES, INC., priority 2020, published 2023)
# Counter-ions that a name gives are not always drawn.
# Assays:
# [1] = compared to QS-21; cited from earlier work
# [2] = TQL-1055 choline salt and free acid ethanol solubility; assay type: physicochemical; settings: 100% ethanol, 37 °C, organic solvent or mixture, thermodynamic from solid, solubility in 100% ethanol, vortex mixed, sonicated at 37° C. for five minutes
# Method: An experiment was conducted to determine the solubility of TQL-1055 choline salt and TQL-1055 free acid in ethanol. Several samples were prepared, each containing either TQL-1055 choline salt or TQL-1055 free acid dissolved in a 100% ethanol solution at a concentration of 4 mg/ml. All samples were mixed using a vortex mixer and subsequently sonicated at 37° C. for five minutes. Neither the TQL-1055 choline salt nor the TQL-1055 free acid were fully dissolved at 4 mg/ml. Samples were then diluted to 3.5 mg/ml, 3 mg/ml, 2.5 mg/ml, or 2 mg/ml and re-sonicated. As depicted in FIGS. 16-18, TQL-1055 choline salt was completely dissolved at a concentration of 3 mg/ml, whereas TQL-1055 free acid was completely dissolved at a concentration of 2 mg/ml. Accordingly, TQL-1055 choline salt is soluble in 100% ethanol up to concentrations of approximately 3 mg/ml, whereas TQL-1055 free acid is soluble in 100% ethanol up to concentrations of approximately 2 mg/ml.
# Solubility in water = assay type: physicochemical
# [3] = Dynamic vapor sorption (DVS) / humidity-dependent form stability; assay type: physicochemical
# Method: Automated vapor sorption (VS) data were collected on a Surface Measurement System DVS Intrinsic instrument. Samples were not dried prior to analysis. Sorption and desorption data were collected over a range from 5% to 95% RH at 10% RH increments under a nitrogen purge. The equilibrium criterion used for analysis was less than 0.0100% weight change in 5 minutes with a maximum equilibration time of 3 hours. Data were not corrected for the initial moisture content of the samples.
# [4] = from 5 to 65% relative humidity
SMILES,efficacy as compared to the natural product [1],toxicity as compared to the natural product [1],solubility at 5 min [2],solubility in water at physiological pH (Solubility in water; physiological pH),DVS additional weight gain ([3]; above 65% up to 95% relative humidity),"DVS weight gain [3, 4]","water gain equivalent to DVS weight gain [3, 4]",DVS weight loss on desorption ([3]; from 95 to 5% relative humidity),relative humidity above which the form converts to higher hydrate Choline Material B ([3]; relative humidity),solubility (Solubility in water)
CC1O[C@@H](OC2C(O)[C@@H](NC(=O)CCCCCCCCCCC(=O)O)C(CO)O[C@H]2OC(=O)[C@]23CCC(C)(C)CC2C2=CCC4C5(C)CC[C@H](O)[C@](C)(C=O)[C@@H]5CC[C@]4(C)[C@]2(C)CC3O)C(O)C(O)[C@H]1O[C@@H]1OC[C@@H](O)C(O)C1O (some centres unmarked) [Compound I-4],improved efficacy,reduced toxicity,~2000 µg/mL,poor solubility,–,–,–,–,–,–
CC1O[C@@H](OC2C(O)[C@@H](NC(=O)CCCCCCCCCCC(=O)O)C(CO)O[C@H]2OC(=O)[C@]23CCC(C)(C)CC2C2=CCC4C5(C)CC[C@H](O)C(C)(C=O)C5CCC4(C)C2(C)CC3O)C(O)C(O)[C@H]1O[C@@H]1OC[C@@H](O)C(O)C1O (some centres unmarked) [Form A],–,–,–,–,14%,5%,~3.5 mol/mol,19%,above 65%,> 6000 µg/mL
CC1O[C@@H](OC2C(O)[C@@H](NC(=O)CCCCCCCCCCC(=O)O)C(CO)O[C@H]2OC(=O)[C@]23CCC(C)(C)CC2C2=CCC4C5(C)CC[C@H](O)C(C)(C=O)C5CCC4(C)C2(C)CC3O)C(O)C(O)[C@H]1O[C@@H]1OC[C@@H](O)C(O)C1O (some centres unmarked) [TQL-1055 choline salt],–,–,~3000 µg/mL,–,–,–,–,–,–,–
